Data published in patent US6838436B1, “Inhibitors of proteasomal activity for stimulating bone growth” (Osteoscreen Inc., priority 1998, dated 2005).
Where two headings read alike, the source gives them in different places. One block for each compound: values may come before it. Where a SMILES comes first, the peptide text is derived from it. [ ]: non-standard residue; d: D form. The star is where a group is joined. Nva = CCC[C@H](N)C(=O)O; Cbz = O=C(OCc1ccccc1)*; OtBu = CC(C)(C)O*

Assays:
mouse BMP2 promoter = test: High throughput screen (ABA assay): BMP2 promoter-luciferase reporter in 2T3-BMP-2-LUC osteoblast cells; type: cell-based; conditions: for activity in the high through-put assay compared with simvastatin: Example 6; for EC50: read-out: Luciferase Activity (ED50-μM)
From the text: 1995, the entire contents of which are incorporated herein by reference. This assay is also described as a portion of a study of immortalized murine osteoblasts (derived from a mouse expressing a transgene composed of a BMP2 promoter driving expression of T-antigen) in Ghosh-Choudhery, N., et al., Endocrinology (1996) 137:331-39. In this study, the immortalized cells were stably transfected with a plasmid containing a luciferase reporter gene driven by a mouse BMP2 promoter (−2736/114 bp), and responded in a dose-dependent manner to recombinant human BMP2.
Briefly, the assay utilizes cells transformed permanently or transiently with constructs in which the promoter of a bone morphogenetic protein, specifically BMP2 or BMP4, is coupled to a reporter gene, typically luciferase. These transformed cells are then evaluated for the production of the reporter gene product; compounds that activate the BMP promoter will drive production of the reporter protein, which can be readily assayed. Many thousands of compounds have been subjected to this rapid screening technique, and only a very small percentage are able to elicit a level of expression of reporter gene 5-fold greater than that produced by vehicle. […] The active compounds (“BMP promoter-active compounds” or “active compounds”) are useful in promoting bone or cartilage growth, and thus in the treatment of vertebrates in need of bone or cartilage growth.
Thousands of compounds have been tested in the assay system set forth in U.S. Ser. No. 08/458,434, filed 2 Jun. 1995, and incorporated herein by reference. […] In this screen, the standard positive control was the compound 59-0008 (also denoted “OS8”), which is of the formula: [drawing 22]
In more detail, the 2T3-BMP-2-LUC cells, a stably transformed osteoblast cell line described in Ghosh-Choudhury et al. Endocrinology (1996) 137:331-39, referenced above, was employed. The cells were cultured using α-MEM, 10% FCS with 1% penicillin/streptomycin and 1% glutamine (“plating medium”), and were split 1:5 once per week. For the assay, the cells were resuspended in a plating medium containing 4% FCS, plated in microtiter plates at a concentration of 5×10^3 cells (in 50 μl)/well, and incubated for 24 hours at 37° C. in 5% CO2. To initiate the assay, 50 μl of the test compound or the control in DMSO was added at 2× concentration to each well, so that the final volume was 100 μl. The final serum concentration was 2% FCS, and the final DMSO concentration was 1%. Compound 59-0008 (10 μM) was used as a positive control.
The treated cells were incubated for 24 hours at 37° C. and 5% CO2. The medium was then removed, and the cells were rinsed three times with PBS. After removal of excess PBS, 25 μl of 1× cell culture lysing reagent (Promega #E153A) was added to each well and incubated for at least ten minutes. Optionally, the plates/samples could be frozen at this point. To each well was added 50 μl of luciferase substrate (Promega #E152A; 10 ml Promega luciferase assay buffer per 7 mg Promega luciferase assay substrate). Luminescence was measured on an automated 96-well luminometer, and was expressed as either picograms of luciferase activity per well or as picograms of luciferase activity per microgram of protein.
Accordingly, other tested compounds can be evaluated at various concentrations, and the results compared to the results obtained for 59-0008 at 10 μM (which value would be normalized to 100). Alternatively, the reactivity of a compound to be tested can be compared directly to a negative control containing no compound.

[1] = system: hair follicles of skin explants; test: Cultured skin explants from 5 day old mice, hair follicle diameter and elongation (Example 11); type: cell-based, C3H/HeS1c mice; conditions: 72 hours
Procedure: Cultured skin explants from 5 day old mice cultured for 72 hours were treated with proteasome inhibitors, non-proteasomal proteases and non-proteasomal inhibitors of NF-κB and effects on hair follicle diameter and follicle elongation were determined according to the method of Kamiya, T., et al., J Derm Sci (1998) 17:54-60. Skin slices from the dorsal skin of 5 day old C3H/HeS1c mice were cultured in 1 ml of αMEM and 0.1% BSA for 72 hours and then assessed for changes in hair follicle diameter and hair elongation under an inverted microscope, using image analysis. […] Thus, the chymotrypsin-like activity of the proteasome is the catalytic component of the proteasome that is responsible for the effects of these compounds on hair follicle differentiation and hair growth. Only proteasome inhibitors had discernable effects on these parameters.

hair follicles = test: Hair follicle number after injection over the calvaria (Example 8); type: in vivo, Swiss ICR mice; conditions: for number of hair follicles: administered in the same way
From the text: The assay described above to assess the effect of compounds on calvarial bone growth can also be used to assess the ability of compounds to stimulate hair growth. The test compound or appropriate control vehicle is applied to the upper and lower back of male ICR Swiss white mice either topically or by subcutaneous injection. The vehicle is selected as appropriate for the compound to be tested and for the route of administration. Optionally, the hair in the test area may be removed prior to administration. After a suitable interval, typically 7 days, the mice are anesthetized and a biopsy of the dorsal treatment area is taken using a 6 mm dermal punch. The specimens are fixed in 10% buffered formalin and imbedded in paraffin wax, and sectioned and stained to observe hair follicles. In addition, photography can be used to observe and record hair growth; typically such growth is observed after 14-18 days. After a suitable interval, typically 21 days, the animals may be euthanized and the hair analyzed for fiber analysis and the tissue from the treatment area analyzed for quantitation of hair follicles.
In more detail, male ICR Swiss white mice, aged 4-6 weeks and weighing 13-26 gm, are employed, using 4-5 mice per group. The calvarial bone growth assay is performed as described above. Briefly, the test compound or appropriate control vehicle is injected into the subcutaneous tissue over the right calvaria of normal mice. Typically, the control vehicle is the vehicle in which the compound was solubilized, and is PBS containing 5% DMSO or is PBS containing Tween (2 μl/10 ml). The animals are sacrificed on day 14 and bone growth measured by histomorphometry. Bone samples for quantitation are cleaned from adjacent tissues and fixed in 10% buffered formalin for 24-48 hours, decalcified in 14% EDTA for 1-3 weeks, processed through graded alcohols; and embedded in paraffin wax. Three to five […] sections of the calvaria are prepared, and representative sections are selected for histomorphometric assessment of the effects on bone formation and bone resorption. Sections are measured by using a camera lucida attachment to trace directly the microscopic image onto a digitizing plate. Bone changes are measured on sections cut 200 μm apart, over 4 adjacent 1×1 mm fields on both the injected and noninjected sides of the calvaria. New bone is identified by its characteristic woven structure, and osteoclasts and osteoblasts are identified by their distinctive morphology. Histomorphometry software (OsteoMeasure, Osteometrix, Inc., Atlanta) is used to process digitizer input to determine cell counts and measure areas or perimeters.
The in vivo bone calvarial growth assay of Example 3 was modified to observe the number of hair follicles in treated mice. […]

Compound: CC[C@H](C)[C@H](NC(=O)[C@H]([C@@H](C)CC)N(C)C(C)=O)C(=O)N[C@H](C(=O)N[C@@H](CC(C)C)C(=O)[C@@]1(C)CO1)[C@@H](C)O [Epoxomicin]
activity in the high through-put assay compared with simvastatin (mouse BMP2 promoter): more active than simvastatin
Luciferase activity/well (mouse BMP2 promoter; dose 0.000625 μM): 0.07
Luciferase activity/well (mouse BMP2 promoter; dose 0.00125 μM): 0.07
Luciferase activity/well (mouse BMP2 promoter; dose 0.0025 μM): 0.08
Luciferase activity/well (mouse BMP2 promoter; dose 0.005 μM): 0.10
Luciferase activity/well (mouse BMP2 promoter; dose 0.01 μM): 0.14
Luciferase activity/well (mouse BMP2 promoter; dose 0.02 μM): 0.17
Luciferase activity/well (mouse BMP2 promoter; dose 0.04 μM): 0.20
Luciferase activity/well (mouse BMP2 promoter; dose 0.08 μM): 0.21
effective in concentrations as low as [1]: 12.5 nM

Compound: CC(=O)N[C@@H](CSC(=O)[C@]1([C@@H](O)C(C)C)NC(=O)[C@H](C)[C@@H]1O)C(=O)O [Lactacystin, lactacystin]
response in the high throughput luciferase screen (mouse BMP2 promoter): Positive responses
EC50 (mouse BMP2 promoter; Mus musculus, Osteoblast): 1 µM
number of hair follicles (hair follicles; dose not given): stimulated an increase in the number of hair follicles
effect on hair follicle differentiation and hair growth ([1]; dose not given): effectively stimulated hair follicle differentiation and enhanced hair growth

Compound: CCC[C@@H](C=O)NC(=O)[C@H](CC(C)C)NC(=O)[C@H](CC(C)C)NC(=O)OCc1ccccc1 [MG-115, N-carbobenzoyl-Leu-Leu-Nva-CHO] (Cbz-Leu-Leu-[Nva]-aldehyde)
response in the high throughput luciferase screen (mouse BMP2 promoter): high activity
EC50 (mouse BMP2 promoter; Mus musculus, Osteoblast): 2 µM
number of hair follicles (hair follicles; 10 mg/kg): stimulated an increase in the number of hair follicles

Compound: CC(C)C[C@@H](C=O)NC(=O)[C@@H](CC(C)C)NC(=O)[C@H](CC(C)C)NC(=O)OCc1ccccc1 [MG-132, N-carbobenzoyl-Leu-Leu-Leu-CHO] (Cbz-Leu-[dL]-Leu-aldehyde)
response in the high throughput luciferase screen (mouse BMP2 promoter): high activity
EC50 (mouse BMP2 promoter; Mus musculus, Osteoblast): 0.25 µM
number of hair follicles (hair follicles; 10 mg/kg): stimulated an increase in the number of hair follicles
effect on hair follicle differentiation and hair growth ([1]; 0.5 μM): effectively stimulated hair follicle differentiation and enhanced hair growth

Compound: CC[C@H](C)[C@H](NC(=O)OCc1ccccc1)C(=O)N[C@@H](CCC(=O)OC(C)(C)C)C(=O)N[C@@H](C)C(=O)N[C@H](C=O)CC(C)C [PSI, N-carbobenzoyl-Ile-Glu-(OtBu)-Ala-Leu-CHO] (Cbz-IE(OtBu)AL-aldehyde)
activity in the high through-put assay compared with simvastatin (mouse BMP2 promoter): more active than simvastatin
EC50 (mouse BMP2 promoter; Mus musculus, Osteoblast): 0.05 µM
Luciferase activity/well (mouse BMP2 promoter; dose 0.000625 μM): 0.07
Luciferase activity/well (mouse BMP2 promoter; dose 0.00125 μM): 0.08
Luciferase activity/well (mouse BMP2 promoter; dose 0.0025 μM): 0.07
Luciferase activity/well (mouse BMP2 promoter; dose 0.005 μM): 0.08
Luciferase activity/well (mouse BMP2 promoter; dose 0.01 μM): 0.08
Luciferase activity/well (mouse BMP2 promoter; dose 0.02 μM): 0.09
Luciferase activity/well (mouse BMP2 promoter; dose 0.04 μM): 0.12
Luciferase activity/well (mouse BMP2 promoter; dose 0.08 μM): 0.18
number of hair follicles versus control mice (hair follicles; 5mg/kg/day injected three times a day for 5 days over the calvaria, sacrificed sixteen days later): strikingly large increase in the number of hair follicles
effect on hair follicle differentiation and hair growth ([1]; 12.5 nM): effectively stimulated hair follicle differentiation and enhanced hair growth

EC50 (mouse BMP2 promoter): 0.2 µM
Compound: simvastatin
response in the high throughput luciferase screen (mouse BMP2 promoter): good response
Luciferase activity/well (mouse BMP2 promoter; dose 0.000625 μM): 0.07
Luciferase activity/well (mouse BMP2 promoter; dose 0.00125 μM): 0.07
Luciferase activity/well (mouse BMP2 promoter; dose 0.0025 μM): 0.065
Luciferase activity/well (mouse BMP2 promoter; dose 0.005 μM): 0.07
Luciferase activity/well (mouse BMP2 promoter; dose 0.01 μM): 0.07
Luciferase activity/well (mouse BMP2 promoter; dose 0.02 μM): 0.07
Luciferase activity/well (mouse BMP2 promoter; dose 0.04 μM): 0.07
Luciferase activity/well (mouse BMP2 promoter; dose 0.08 μM): 0.07
Luciferase activity/well (mouse BMP2 promoter; dose 0.16 μM): 0.07
Luciferase activity/well (mouse BMP2 promoter; dose 0.32 μM): 0.07
Luciferase activity/well (mouse BMP2 promoter; dose 0.625 μM): 0.09
Luciferase activity/well (mouse BMP2 promoter; dose 1.25 μM): 0.11
Luciferase activity/well (mouse BMP2 promoter; dose 2.5 μM): 0.14
Luciferase activity/well (mouse BMP2 promoter; dose 5 μM): 0.15
Luciferase activity/well (mouse BMP2 promoter; dose 10 μM): 0.15
